Measurements published in US9493506B2 (Enanta Pharmaceuticals, Inc., priority 2010, dated 2016).

Legend:
Format in all cases: cell-based, hepatitis C virus (genotype 1a-H77)
[1] = tested on: HCV replicon with a D168V mutation in a 1a-H77 background; test: transient replicon assay, D168V mutation in 1a-H77 background; conditions: Hepatitis C virus, read-out: EC50 in a transient replicon assay with a D168V mutation in a 1a-H77 background
Description: (§1) Replicon cell lines can be maintained in Dulbecco's modified Eagles medium (DMEM) containing 100 IU/ml penicillin, […] streptomycin (Invitrogen), […] G418 (Invitrogen) and 10% (v/v) fetal bovine serum (FBS). Replicon-containing cells can be seeded into 96 well plates at a density of 5000 cells per well in 100 μl DMEM containing 5% FBS. The next day, the compound can be initially diluted in dimethyl sulfoxide (DMSO) to generate a 200× stock of the inhibitor in a series of 8 half-log dilutions. The dilution series can then be diluted 100-fold in the medium containing 5% FBS. One hundred microliters of medium with the inhibitor can be added to each well of the overnight cell culture plate already containing 100 μl of DMEM with 5% FBS. In assays where the protein binding effect on inhibitor potency is assessed, the medium from the overnight cell culture plates can be replaced with 200 μl DMEM containing 40% human plasma (Innovative Research) plus 5% FBS as well as compound. The cells can be grown for 4 days in tissue culture incubators. The inhibitory effects of compounds against the replicons can be determined by measuring either the level of luciferase or HCV RNA. The luciferase assay can be conducted using a Luciferase Assay System kit (Promega) following the manufacturer's instructions. Briefly, the cell culture medium is removed and wells are washed with 200 μl of phosphate-buffered saline. To each well Passive Lysis buffer (Promega, Wis.) is added and the plates are incubated for 30 min with rocking to lyse the cells. Luciferin solution (50 μl, Promega) is added, and luciferase activity is measured with a Victor II luminometer (Perkin-Elmer). To determine HCV RNA levels, RNA extractions can be performed using the CellsDirect kit (Invitrogen), and the HCV RNA copy number can be measured using the SuperScript III Platinum One-Step qRT-PCR system (Invitrogen) and primers specific to the HCV 5′ nontranslated region. Cytotoxicity can be determined by the 3-[4,5-dimethylhiazol-2-yl]-2,5-diphenyltetrazolium bromide (MTT) colorimetric assay as follows. Replicon cells is plated in 96-well plates (4000 cells per well), the next day compound dilutions are added as in the activity assay, and the cells are grown in the presence of the inhibitors for 4 days. The MTT solution is diluted in DMEM containing 5% FBS and 60 μl of the solution is added to the cells. After 4 hrs, the cells are solubilized by the addition of 30 […]μl SDS (20% in 0.02 N HCl). The plates are incubated overnight and the optical density can be measured at 570 nm. To determine compounds' EC50 and TD50, luciferase, RNA inhibition and MTT data can be analyzed using the GraphPad Prism 4 software (equation: sigmoidal dose-response—variable slope).
(§2) The 1a-H77 replicon for transient assays further differs from the replicon in the stable cell line in that it contains NS2 through NS5B in the second cistron. The 1b-N strain replicon contains NS3 through NS5B in the second cistron, with adaptive mutations E1202G in NS3 and S2204I in NS5A. Mutagenesis can be performed using the Stratagene QuikChange XL II site-directed mutagenesis kit. Mutants' sequences can be confirmed, plasmids can be linearized with Xba I restriction enzyme and used as template for in vitro transcription reactions to make mutant replicon RNA for transient transfections. In vitro transcription can be performed with the T7 Megascript kit (Ambion).
(§3) Transient replicon transfections can be performed essentially as described by Mo et al. (Antimicrob Agents Chemother (2005) 49(10):4305-4314) with slight modifications. Fifteen micrograms of template RNA can be used to electroporate 3×10^6 cells in a 200 μl volume in a 0.2 cm cuvette. The cells used for transient transfections can be Huh7 cells obtained by curing replicon-containing cells with IFN (Mo et al., supra). Electroporation can be done with a Gene Pulser II (Bio-Rad, CA) at 480V and 25 μF, using two manual pulses. […]

[2] = tested on: HCV replicon with a D168E mutation in a 1a-H77 background; test: transient replicon assay, D168E mutation in 1a-H77 background; conditions: Hepatitis C virus, read-out: EC50 in a transient replicon assay with a D168E mutation in a 1a-H77 background
Description: as §1, §2, §3

[3] = tested on: HCV replicon with a R155K mutation in a 1a-H77 background; test: transient replicon assay, R155K mutation in 1a-H77 background; conditions: Hepatitis C virus, read-out: EC50 in a transient replicon assay with a R155K mutation in a 1a-H77 background
Description: as §1, §2, §3

Structure (SMILES) | EC50 [1] [µM] | EC50 [2] [µM] | EC50 [3] [µM]
Cc1cc(C(=O)N[C@H]2CCCCC/C=C\[C@@H]3C[C@@]3(C(=O)NS(=O)(=O)C3(C)CC3)NC(=O)[C@@H]3C[C@@H](Oc4nc5c(F)cccc5nc4C)CN3C2=O)no1 [Example 58, N-((2R,6S,13aS,14aR,16aS,Z)-2-(8-fluoro-3-methylquinoxalin-2-yloxy)-14a-(1-methylcyclopropylsulfonylcarbamoyl)-5,16-dioxo-1,2,3,5,6,7,8,9,10,11,13a,14,14a,15,16,16a-hexadecahydrocyclopropa[e]pyrrolo[1,2-a][1,4]diazacyclopentadecin-6-yl)-5-methylisoxazole-3-carboxamide] | < 0.025 | 0.003 to 0.02 | < 0.001
Cc1cc(C(=O)N[C@H]2CCCCC/C=C\[C@@H]3C[C@@]3(C(=O)NS(=O)(=O)C3CC3)NC(=O)[C@@H]3C[C@@H](Oc4nc5cc(F)cc(Br)c5nc4C)CN3C2=O)no1 [Example 98, N-((2R,6S,13aS,14aR,16aS,Z)-2-(5-bromo-7-fluoro-3-methylquinoxalin-2-yloxy)-14a-(cyclopropylsulfonylcarbamoyl)-5,16-dioxo-1,2,3,5,6,7,8,9,10,11,13a,14,14a,15,16,16a-hexadecahydrocyclopropa[e]pyrrolo[1,2-a][1,4]diazacyclopentadecin-6-yl)-5-methylisoxazole-3-carboxamide] | < 0.025 | 0.003 to 0.02 | 0.001 to 0.01
Cc1nc2c(Br)cc(F)cc2nc1O[C@@H]1C[C@H]2C(=O)N[C@]3(C(=O)NS(=O)(=O)C4(C)CC4)C[C@H]3/C=C\CCCCC[C@H](NC(=O)c3ccon3)C(=O)N2C1 [Example 100, N-((2R,6S,13aS,14aR,16aS,Z)-2-(5-bromo-7-fluoro-3-methylquinoxalin-2-yloxy)-14a-(1-methylcyclopropylsulfonylcarbamoyl)-5,16-dioxo-1,2,3,5,6,7,8,9,10,11,13a,14,14a,15,16,16a-hexadecahydrocyclopropa[e]pyrrolo[1,2-a][1,4]diazacyclopentadecin-6-yl)isoxazole-3-carboxamide] | < 0.025 | 0.003 to 0.02 | < 0.001
Cc1nc2c(Br)cc(F)cc2nc1O[C@@H]1C[C@H]2C(=O)N[C@]3(C(=O)NS(=O)(=O)C4(C)CC4)C[C@H]3/C=C\CCCCC[C@H](NC(=O)c3noc(C)c3C)C(=O)N2C1 [Example 102, N-((2R,6S,13aS,14aR,16aS,Z)-2-(5-bromo-7-fluoro-3-methylquinoxalin-2-yloxy)-14a-(1-methylcyclopropylsulfonylcarbamoyl)-5,16-dioxo-1,2,3,5,6,7,8,9,10,11,13a,14,14a,15,16,16a-hexadecahydrocyclopropa[e]pyrrolo[1,2-a][1,4]diazacyclopentadecin-6-yl)-4,5-dimethylisoxazole-3-carboxamide] | < 0.025 | 0.003 to 0.02 | < 0.001
CC(C)(C)OC(=O)N[C@H]1CCCCC/C=C\[C@@H]2C[C@@]2(C(=O)NS(=O)(=O)C2CC2)NC(=O)[C@@H]2C[C@@H](Oc3nc4cc(F)ccc4nc3C(F)(F)F)CN2C1=O [Example 106, tert-butyl (2R,6S,13aS,14aR,16aS,Z)-14a-(cyclopropylsulfonylcarbamoyl)-2-(7-fluoro-3-(trifluoromethyl)quinoxalin-2-yloxy)-5,16-dioxo-1,2,3,5,6,7,8,9,10,11,13a,14,14a,15,16,16a-hexadecahydrocyclopropa[e]pyrrolo[1,2-a][1,4]diazacyclopentadecin-6-ylcarbamate] | 0.05 to 0.25 | 0.003 to 0.02 | < 0.001
Cc1onc(C(=O)N[C@H]2CCCCC/C=C\[C@@H]3C[C@@]3(C(=O)NS(=O)(=O)C3(C)CC3)NC(=O)[C@@H]3C[C@@H](Oc4nc5cc(F)ccc5nc4C(F)(F)F)CN3C2=O)c1C [Example 108, N-((2R,6S,13aS,14aR,16aS,Z)-2-(7-fluoro-3-(trifluoromethyl)quinoxalin-2-yloxy)-14a-(1-methylcyclopropylsulfonylcarbamoyl)-5,16-dioxo-1,2,3,5,6,7,8,9,10,11,13a,14,14a,15,16,16a-hexadecahydrocyclopropa[e]pyrrolo[1,2-a][1,4]diazacyclopentadecin-6-yl)-4,5-dimethylisoxazole-3-carboxamide] | < 0.025 | < 0.003 | < 0.001
CC1(S(=O)(=O)NC(=O)[C@@]23C[C@H]2/C=C\CCCCC[C@H](NC(=O)c2ccon2)C(=O)N2C[C@H](Oc4nc5cc(F)ccc5nc4C(F)(F)F)C[C@H]2C(=O)N3)CC1 [Example 109, N-((2R,6S,13aS,14aR,16aS,Z)-2-(7-fluoro-3-(trifluoromethyl)quinoxalin-2-yloxy)-14a-(1-methylcyclopropylsulfonylcarbamoyl)-5,16-dioxo-1,2,3,5,6,7,8,9,10,11,13a,14,14a,15,16,16a-hexadecahydrocyclopropa[e]pyrrolo[1,2-a][1,4]diazacyclopentadecin-6-yl)isoxazole-3-carboxamide] | < 0.025 | < 0.003 | < 0.001
CC(C)(C)OC(=O)N[C@H]1CCCCC/C=C\[C@@H]2C[C@@]2(C(=O)NS(=O)(=O)C2(C)CC2)NC(=O)[C@@H]2C[C@@H](Oc3nc4cc(F)ccc4nc3C(F)(F)F)CN2C1=O [Example 110, tert-butyl (2R,6S,13aS,14aR,16aS,Z)-2-(7-fluoro-3-(trifluoromethyl)quinoxalin-2-yloxy)-14a-(1-methylcyclopropylsulfonylcarbamoyl)-5,16-dioxo-1,2,3,5,6,7,8,9,10,11,13a,14,14a,15,16,16a-hexadecahydrocyclopropa[e]pyrrolo[1,2-a][1,4]diazacyclopentadecin-6-ylcarbamate] | 0.025 to 0.05 | 0.003 to 0.02 | < 0.001
CC(C)(C)OC(=O)N[C@H]1CCCCC/C=C\[C@@H]2C[C@@]2(C(=O)NS(=O)(=O)C2CC2)NC(=O)[C@@H]2C[C@@H](Oc3nc4c(F)cccc4nc3C(F)(F)F)CN2C1=O [Example 112, tert-butyl (2R,6S,13aS,14aR,16aS,Z)-14a-(cyclopropylsulfonylcarbamoyl)-2-(8-fluoro-3-(trifluoromethyl)quinoxalin-2-yloxy)-5,16-dioxo-1,2,3,5,6,7,8,9,10,11,13a,14,14a,15,16,16a-hexadecahydrocyclopropa[e]pyrrolo[1,2-a][1,4]diazacyclopentadecin-6-ylcarbamate] | 0.025 to 0.05 | 0.003 to 0.02 | < 0.001
Cc1cc(C(=O)N[C@H]2CCCCC/C=C\[C@@H]3C[C@@]3(C(=O)NS(=O)(=O)C3CC3)NC(=O)[C@@H]3C[C@@H](Oc4nc5c(F)cccc5nc4C(F)(F)F)CN3C2=O)no1 [Example 113, N-((2R,6S,13aS,14aR,16aS,Z)-14a-(cyclopropylsulfonylcarbamoyl)-2-(8-fluoro-3-(trifluoromethyl)quinoxalin-2-yloxy)-5,16-dioxo-1,2,3,5,6,7,8,9,10,11,13a,14,14a,15,16,16a-hexadecahydrocyclopropa[e]pyrrolo[1,2-a][1,4]diazacyclopentadecin-6-yl)-5-methylisoxazole-3-carboxamide] | < 0.025 | < 0.003 | < 0.001
